Five molecules from patent US20050234111A1, “D-homo-17-chlor-16(17)-ene steroids” (priority 2004, published 2005) can be followed below.

Each structure is given as a SMILES string.

For this assay, the target named is T1, androgen receptor (Rattus norvegicus, UniProt P15207).
T1 construct: on receptors in cystosol from animal target organs; from tissue; host or cells: prostate cytosol of castrated rat
T1 sequence (P15207 1-902): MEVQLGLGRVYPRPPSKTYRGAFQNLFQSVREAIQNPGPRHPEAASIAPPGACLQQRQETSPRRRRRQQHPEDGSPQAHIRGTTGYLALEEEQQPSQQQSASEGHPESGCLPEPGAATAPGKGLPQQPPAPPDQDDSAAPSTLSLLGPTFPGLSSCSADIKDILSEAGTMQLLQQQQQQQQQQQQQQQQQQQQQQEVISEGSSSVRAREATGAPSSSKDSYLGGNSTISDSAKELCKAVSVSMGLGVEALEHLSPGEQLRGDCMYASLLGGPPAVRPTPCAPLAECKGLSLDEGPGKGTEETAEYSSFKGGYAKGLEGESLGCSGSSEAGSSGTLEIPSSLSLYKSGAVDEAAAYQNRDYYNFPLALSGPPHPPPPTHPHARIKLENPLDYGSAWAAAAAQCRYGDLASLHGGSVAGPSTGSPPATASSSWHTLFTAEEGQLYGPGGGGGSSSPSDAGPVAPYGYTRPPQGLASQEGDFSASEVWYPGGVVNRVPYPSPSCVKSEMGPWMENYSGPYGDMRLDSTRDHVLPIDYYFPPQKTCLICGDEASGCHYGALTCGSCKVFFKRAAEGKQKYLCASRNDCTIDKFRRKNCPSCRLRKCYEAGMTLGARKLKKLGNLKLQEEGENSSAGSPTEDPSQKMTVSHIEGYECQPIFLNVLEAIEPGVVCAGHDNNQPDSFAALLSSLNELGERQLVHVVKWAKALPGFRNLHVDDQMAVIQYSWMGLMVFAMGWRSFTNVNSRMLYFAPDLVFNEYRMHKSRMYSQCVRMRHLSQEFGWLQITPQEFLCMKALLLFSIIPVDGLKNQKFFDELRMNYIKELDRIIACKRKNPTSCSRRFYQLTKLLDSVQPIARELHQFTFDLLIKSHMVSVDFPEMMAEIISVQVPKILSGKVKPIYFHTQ
Briefly: Measurement of the androgen receptor binding affinity (competitive binding with 3H-Metribolone tracer in prostate cytosol). Conditions: prostate cytosol of the castrated rat; tracer 3H-Metribolone; reference substance DHT = 100%; 0-4° C., 18 hours. The protocol: Measurement of the androgen receptor binding affinity:
The receptor binding affinity was determined by competitive binding of a specifically binding 3H-labeled hormone (tracer) and the compound to be tested on receptors in cystosol from animal target organs. In this case, receptor saturation and reaction equilibrium were desired.
The tracer and increasing concentrations of the compound to be tested (competitor) were co-incubated at 0-4° C. over 18 hours with the receptor-containing cytosol fraction. After separation of the unbonded tracer with carbon-dextran suspension, the receptor-bonded tracer portion was measured for each concentration and the IC50 was determined from the concentration series.
The following incubation conditions were selected:
Prostate cytosol of the castrated rat; prostates stored at −30° C.;
For the molecule `CC1CC2=CC(=O)CCC2(C)C2CCC3(C)C(O)C(Cl)=CCC3C12` (stereo not drawn) [Compound 2, 17-Chloro-17aβ-hydroxy-7α-methyl-17a-homoandrosta-4,16-dien-3-one], the “RBA % (relative molar binding affinity)” value is 46%.

As for `C[C@]12CC[C@H]3[C@@H](CCC4=C(C(F)(F)F)C(=O)CC[C@@]43C)[C@@H]1CC=C(Cl)[C@@H]2O` [Compound 9, 17-Chloro-17aβ-hydroxy-4-trifluoromethyl-17a-homoandrosta-4,16-dien-3-one], the “RBA % (relative molar binding affinity)” value stood at 51%.

For `CC1CC2=CC(=O)CCC2C2CCC3(C)C(O)C(Cl)=CCC3C12` (stereo not drawn) [Compound 18, 17-Chloro-17aβ-hydroxy-7α-methyl-17a-homo-estra-4,16-dien-3-one], the “RBA % (relative molar binding affinity)” value amounted to 105%.

As for `CC12CCC3C4CCC(=O)C(O)=C4CCC3C1CC=C(Cl)C2O` (centres unmarked) [Compound 21, 17-Chloro-4,17aβ-dihydroxy-17a-homo-estra-4,16-dien-3-one], the “RBA % (relative molar binding affinity)” value worked out at 70%.

On to `C[C@]12CC[C@H]3[C@@H](CCC4=CC(=O)CC[C@@H]43)[C@@H]1CC=C(Cl)[C@@H]2O` [Compound 17, 17-Chloro-17aβ-hydroxy-17a-homo-estra-4,16-dien-3-one], for which the “RBA % (relative molar binding affinity)” value is 80%.
